From patent US10017514B2, “6,7-dihydropyrazolo[1,5-α]pyrazin-4(5H)-one compounds and their use as negative allosteric modulators of mGluR2 receptors” (Janssen Pharmaceutica NV, priority 2014, dated 2018) come the findings set out here.

The target of series [1] is T1, human mGlu2 receptor (Homo sapiens, UniProt Q14416).
T1 construct: expressed in transfected cells; host or cells: CHO cells (membrane preparation)
The series is described as follows: [35S]GTPγS binding assay, mGluR2 negative allosteric modulation. The class given is biochemical. The following applies: for Emax: maximal % inhibition relative to the control glutamate response (EC80 glutamate), read-out: GTPγS-hmGluR2 anGT Emax; for IC50: membranes from CHO cells transfected with human mGlu2 receptor, glutamate ~EC80 (60 μM), read-out: GTPγS-hmGluR2 anGT pIC50 (converted). The procedure: Total reaction volume was 200 μl. […] Membrane-bound radioactivity was counted in a Topcount.

T1 sequence (Q14416 19-872): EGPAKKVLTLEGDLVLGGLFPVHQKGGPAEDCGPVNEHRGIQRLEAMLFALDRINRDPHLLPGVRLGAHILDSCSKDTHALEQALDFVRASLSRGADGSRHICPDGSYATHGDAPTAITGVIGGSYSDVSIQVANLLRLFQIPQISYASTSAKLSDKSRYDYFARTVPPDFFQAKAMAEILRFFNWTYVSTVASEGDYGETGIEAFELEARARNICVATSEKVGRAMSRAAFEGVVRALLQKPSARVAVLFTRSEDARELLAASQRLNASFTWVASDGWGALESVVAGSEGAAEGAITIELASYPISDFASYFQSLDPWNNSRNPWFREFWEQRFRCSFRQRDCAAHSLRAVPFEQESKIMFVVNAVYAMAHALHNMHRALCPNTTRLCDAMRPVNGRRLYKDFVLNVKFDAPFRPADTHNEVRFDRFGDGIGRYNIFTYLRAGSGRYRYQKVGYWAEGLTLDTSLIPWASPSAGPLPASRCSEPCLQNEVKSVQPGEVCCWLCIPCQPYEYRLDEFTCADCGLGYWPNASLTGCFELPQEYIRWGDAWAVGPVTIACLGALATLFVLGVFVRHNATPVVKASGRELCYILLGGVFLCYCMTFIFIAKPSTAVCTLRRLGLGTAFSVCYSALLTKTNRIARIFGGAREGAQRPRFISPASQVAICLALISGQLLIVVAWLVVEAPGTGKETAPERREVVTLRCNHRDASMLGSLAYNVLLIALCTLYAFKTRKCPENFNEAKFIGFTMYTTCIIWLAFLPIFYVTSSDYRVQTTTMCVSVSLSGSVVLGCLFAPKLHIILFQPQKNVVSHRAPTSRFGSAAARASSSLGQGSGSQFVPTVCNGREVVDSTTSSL

Molecule `Cc1cc(-c2cnn3c2C(=O)N(c2ccc(C(F)(F)F)cc2)C[C@@H]3C)no1` [Co. No. 1, (7S)-7-Methyl-3-(5-methylisoxazol-3-yl)-5-[4-(trifluoromethyl)phenyl]-6,7-dihydropyrazolo[1,5-a]pyrazin-4-one] had a melting point of 165.04 °C. Also, in series [1], the Emax worked out at 103% and the IC50 is 0.0692 µM.
For `C[C@H]1CN(c2ccc(C(F)(F)F)cc2)C(=O)c2c(-c3cc(-c4ccccc4)on3)cnn21` [Co. No. 3, (7S)-7-methyl-3-(5-phenylisoxazol-3-yl)-5-[4-(trifluoromethyl)phenyl]-6,7-dihydropyrazolo[1,5-a]pyrazin-4-one] the same measures were 194.25 °C, 103% and 0.00912 µM.
For `C[C@H]1CN(c2ccc(C(F)(F)F)cc2)C(=O)c2c(-c3cc(-c4ccccn4)on3)cnn21` [Co. No. 4, (7S)-7-methyl-3-[5-(2-pyridyl)isoxazol-3-yl]-5-[4-(trifluoromethyl)phenyl]-6,7-dihydropyrazolo[1,5-a]pyrazin-4-one] the same measures were 193.65 °C, 106% and 0.0407 µM.
In turn, `Cc1cc(-c2cc(-c3cnn4c3C(=O)N(c3ccc(C(F)(F)F)cc3)C[C@@H]4C)no2)ccn1` [Co. No. 6, (7S)-7-methyl-3-[5-(2-methyl-4-pyridyl)isoxazol-3-yl]-5-[4-(trifluoromethyl)phenyl]-6,7-dihydropyrazolo[1,5-a]pyrazin-4-one] showed a melting point of 118.52 °C. For the same molecule, in series [1], the maximal effect (Emax) was found to be 114% and the IC50 is 0.0407 µM.
Taken in the same sequence, the figures for `Cc1cncc(-c2cc(-c3cnn4c3C(=O)N(c3ccc(C(F)(F)F)cc3)C[C@@H]4C)no2)c1` [Co. No. 7, (7S)-7-methyl-3-[5-(5-methyl-3-pyridyl)isoxazol-3-yl]-5-[4-(trifluoromethyl)phenyl]-6,7-dihydropyrazolo[1,5-a]pyrazin-4-one] were 208.95 °C, 106% and 0.0275 µM.
`Cc1cc(-c2cnn3c2C(=O)N(c2ccc(C(F)(F)F)c(Cl)c2)C[C@@H]3C)no1` [Co. No. 8, (7S)-5-[3-chloro-4-(trifluoromethyl)phenyl]-7-methyl-3-(5-methylisoxazol-3-yl)-6,7-dihydropyrazolo[1,5-a]pyrazin-4-one]: in series [1], the Emax is 110% and the IC50 is 0.0162 µM.
In the case of `C[C@H]1CN(c2ccc(C(F)(F)F)c(Cl)c2)C(=O)c2c(-c3cc(-c4ccc(N)nc4)on3)cnn21` [Co. No. 9, (7S)-3-[5-(6-amino-3-pyridyl)isoxazol-3-yl]-5-[3-chloro-4-(trifluoromethyl)phenyl]-7-methyl-6,7-dihydropyrazolo[1,5-a]pyrazin-4-one], in series [1], the Emax is 113% and the IC50 is 0.00115 µM.
`C[C@H]1CN(c2ccc(C(F)(F)F)c(Cl)c2)C(=O)c2c(-c3cc(-c4cnccn4)on3)cnn21` [Co. No. 13, (7S)-5-[3-chloro-4-(trifluoromethyl)phenyl]-7-methyl-3-(5-pyrazin-2-ylisoxazol-3-yl)-6,7-dihydropyrazolo[1,5-a]pyrazin-4-one] yielded a melting point of 205.91 °C. Moreover, in series [1], the Emax is 106% and the IC50 is 0.00603 µM.
Taken in the same sequence, the figures for `Cc1cc(N2C[C@H](C)n3ncc(-c4cc(-c5ccccn5)on4)c3C2=O)ccc1C(F)(F)F` [Co. No. 14, (7S)-7-methyl-5-[3-methyl-4-(trifluoromethyl)phenyl]-3-[5-(2-pyridyl)isoxazol-3-yl]-6,7-dihydropyrazolo[1,5-a]pyrazin-4-one] were 155.07 °C, 107% and 0.0148 µM.
`Cc1cncc(-c2cc(-c3cnn4c3C(=O)N(c3ccc(C(F)(F)F)c(C)c3)C[C@@H]4C)no2)c1` [Co. No. 16, (7S)-7-methyl-3-[5-(5-methyl-3-pyridyl)isoxazol-3-yl]-5-[3-methyl-4-(trifluoromethyl)phenyl]-6,7-dihydropyrazolo[1,5-a]pyrazin-4-one] yielded a melting point of 172.9 °C. Besides, in series [1], the Emax came out at 110% and the IC50 was 0.0214 µM.
For `Cc1cc(N2C[C@H](C)n3ncc(-c4cc(-c5cnccn5)on4)c3C2=O)ccc1C(F)(F)F` [Co. No. 17, (7S)-7-methyl-5-[3-methyl-4-(trifluoromethyl)phenyl]-3-(5-pyrazin-2-ylisoxazol-3-yl)-6,7-dihydropyrazolo[1,5-a]pyrazin-4-one] the same measures were 181.57 °C, 106% and 0.0174 µM.
Taken in the same sequence, the figures for `C[C@H]1CN(c2ccc(C(F)(F)F)cc2)C(=O)c2c(-c3cc(-c4cncc(F)c4)on3)cnn21` [Co. No. 19, (7S)-3-[5-(5-fluoro-3-pyridyl)isoxazol-3-yl]-7-methyl-5-[4-(trifluoromethyl)phenyl]-6,7-dihydropyrazolo[1,5-a]pyrazin-4-one] were 176.27 °C, 101% and 0.0186 µM.
For `Cc1cc(N2C[C@H](C)n3ncc(-c4cc(-c5cncc(F)c5)on4)c3C2=O)ccc1C(F)(F)F` [Co. No. 23, (7S)-3-[5-(5-fluoro-3-pyridyl)isoxazol-3-yl]-7-methyl-5-[3-methyl-4-(trifluoromethyl)phenyl]-6,7-dihydropyrazolo[1,5-a]pyrazin-4-one] the same measures were 168.93 °C, 105% and 0.0209 µM.
In turn, `C[C@H]1CN(c2ccc(C(F)(F)F)cc2)C(=O)c2c(-c3cc(-c4cccnc4N)on3)cnn21` [Co. No. 24, (7S)-3-[5-(2-amino-3-pyridyl)isoxazol-3-yl]-7-methyl-5-[4-(trifluoromethyl)phenyl]-6,7-dihydropyrazolo[1,5-a]pyrazin-4-one] displayed a melting point of 189.85 °C. Also, in series [1], the Emax came out at 106% and the IC50 was 0.00603 µM.
For `CNc1cc(-c2cc(-c3cnn4c3C(=O)N(c3ccc(C(F)(F)F)cc3)C[C@@H]4C)no2)ccn1` [Co. No. 25, (7S)-7-methyl-3-[5-[2-(methylamino)-4-pyridyl]isoxazol-3-yl]-5-[4-(trifluoromethyl)phenyl]-6,7-dihydropyrazolo[1,5-a]pyrazin-4-one] the same measures were 208.39 °C, 110% and 0.0251 µM.
For `CNc1ccc(-c2cc(-c3cnn4c3C(=O)N(c3ccc(C(F)(F)F)cc3)C[C@@H]4C)no2)cn1` [Co. No. 26, (7S)-7-methyl-3-[5-[6-(methylamino)-3-pyridyl]isoxazol-3-yl]-5-[4-(trifluoromethyl)phenyl]-6,7-dihydropyrazolo[1,5-a]pyrazin-4-one] the same measures were 173.7 °C, 112% and 0.00617 µM.
